Where no end group is shown, it is not given here.
Tests used:
[1] = tested on: EAE induced with MBP, MOG or MBP/MOG combination; conditions: (PL/J×SJL/J) F1 mice, cited from earlier work
[2] = tested on: EAE induced by Y-MSPb-reactive line T-cells; experiment: EAE associated with multiple pathogenic autoreactivities induced by transfer of Y-MSPb-reactive line T-cells; format: in vivo, (C3H.SW×SJL/J)F1 mice; conditions: in PBS given daily i.p. from the day of T-cell transfer; FIG. 9B
Experimental: Y-MSPb, the purified protein product of the synthetic Y-MSPb gene, disclosed in WO 01-31037, designed to encode tandemly arranged disease-relevant epitopes clusters of the encephalitogenic proteins MBP, PLP, MOG, and MOBP, was tested for its immunomodulatory effect on EAE associated with multiple pathogenic autoreactivities, upon tolerogenic administration, in the same way as described for Y-MSPa in WO 01-31037.
Line T-cells were selected in vitro with Y-MSPb from lymph node cells (LNCs) of (C3H.SW×SJL/J)F1 mice immunized with Y-MSPb (containing encephalitogenic epitopes of MOG, MBP, PLP and MOBP) in CFA, and were analyzed after primary response (left panel) and after four cycles of selection (right panel) for their proliferative response to Y-MSPb, phMOG 34-56, phMOG 1-22, shMOG/E, PLP 139-151, shPLP/E, MBP 87-101 and shMBP/E (10 μ/ml). The proliferative response to purified protein derivative (PPD) (5 μ/ml) was analyzed as a measure of specificity. The line T cells are directed against each of the myelin autoantigens.

[3] = tested on: EAE induced with MOG 37-52; experiment: EAE induced with MOG 37-52, treatment with MOG APLs; format: in vivo; conditions: C3H.SW mice; 400 μg in PBS i.v. on days 5, 7, 9 and 12 after encephalitogenic challenge; FIG. 8
[4] = tested on: lymph node cells; experiment: Ex vivo response to MOG 37-52 by lymph node cells isolated from treated mice; format: cell-based; conditions: cells from APL-treated C3H.SW mice
[5] = tested on: H-2^b haplotype mice (C3H.SW, C57BL); experiment: Encephalitogenicity of T-cell responses elicited by APLs; format: in vivo; conditions: H-2^b mice; not shown
Description: (§1) For EAE induced in H-2^b haplotype mice (C3H.SW, C57BL) by MOG 35-55 (SEQ ID NO: 234), we have defined residues 41 and 44 as crucial TCR contact residues for the interaction between the encephalitogenic nonameric core sequence MOG 40-48, found by molecular modelling studies to represent the preferred binding mode for MOG 35-55 to IA^b, and the TCR of H-2^b MOG-specific T-cells. APLs with non-conservative substitutions at either or both of these residues elicited T-cell responses which were not encephalitogenic (not shown). In vitro, these APLs inhibited the proliferation of T-cell clones to MOG 37-52, the minimal optimal stimulatory peptide. […] MOG35-55-specific T-cell line was raised from MOG35-55-immunized C3H.SW mice as described (Mendel et al., 1996). Cytokine assays were performed by ELISA according to PharMingen standard protocols.

[6] = tested on: APL-specific T-cell lines; experiment: Cytokine profile of APL-specific T-cell lines (ELISA); format: cell-based, mice; conditions: pilot studies, not shown
Description: as §1

[7] = tested on: TCR; experiment: TCR signaling in MOG 37-52-reactive T-cell clones; format: cell-based, mice; conditions: peptide alone; not shown
Experimental: Possible mechanisms by which the relevant APLs may inhibit MOG 37-52-reactive T-cell clones in vitro were tested by analyzing their effect on TCR signaling, as well as on cytokine secretion by the clones.

[8] = tested on: chronic EAE induced with whole PLP; conditions: SJL/J mice; tolerization; cited from earlier work

MBPAc1-11: immunodominant encephalitogenic epitope within MBP (Ac-MGNHSGKRELS; UniProt P04370 1-11, looked up, fragment)
MBP-induced EAE [1]: suppresses
MOG-induced EAE [1]: no effect
clinical severity of EAE induced with a combination of MBP and MOG ([1]; tolerogenic administration): marginal therapeutic effect

MOG 37-52: native MOG peptide, the minimal optimal stimulatory peptide (VGWYRPPFSRVVHLYR; Synthetic peptide containing sequence 37-52 of MOG.)
EAE induced by Y-MSPb-reactive line T-cells: disease incidence or severity [2]: no significant effect

MOG 37-A44-52: APL of MOG 37-52 wherein F44 is substituted by A44 (VGWYRPPASRVVHLYR; The peptide of SEQ ID NO231 in which the residue at position 8 was replaced by Ala.)
severity and incidence of EAE induced with the native MOG 37-52 [3]: marked decrease
response ex vivo to MOG 37-52 by lymph node cells isolated from treated mice [4]: markedly reduced response
encephalitogenicity of the APL / of the T-cell responses it elicits [5]: non-encephalitogenicity
cytokine profile of APL-specific T-cell lines [6]: elicits Th2 T-cells
TCR signaling in the T-cell clones [7]: induces partial TCR signaling

MOG 37-Q41-52: MOG 37-52 altered peptide ligand substituted at TCR contact residue 41 (VGWYQPPFSRVVHLYR; The peptide of SEQ ID NO231 in which the residue at position 5 was replaced by Gln.)
severity and incidence of EAE induced with the native MOG 37-52 [3]: marked decrease
response ex vivo to MOG 37-52 by lymph node cells isolated from treated mice [4]: markedly reduced response

PLP139-151: major encephalitogenic peptide of PLP (CHCLGKWLGHPDK; UniProt P60202 139-151, looked up, fragment)
EAE induced by Y-MSPb-reactive line T-cells: disease incidence or severity [2]: no significant effect
chronic EAE induced with whole PLP: acute phase and relapses [8]: abrogated the primary acute phase, but not subsequent relapses
